Test results reported in ChEMBL document CHEMBL1137749, “Antifungal unsaturated cyclic Mannich ketones and amino alcohols: study of mechanism of action” (2009).
Values after ≈ are worked out from the molar mass of the structure shown. Active and inactive are the calls of the source. No cut-off for these calls is given here.

Assays:
Candida parapsilosis = assay: Antifungal activity against Candida parapsilosis ATCC 22019 after 48 hrs by macro tube dilution method; format: functional; conditions: Lodderomyces parapsilosis, ATCC 22019, 48 h
Aspergillus sp. = assay: Antifungal activity against Aspergillus sp. after 48 hrs by macro tube dilution method; format: functional
Candida albicans [1] = assay: Antifungal activity against Candida albicans ATCC 90028 after 48 hrs by macro tube dilution method; format: functional; conditions: ATCC 90028, 48 h
Pichia kudriavzevii = assay: Antifungal activity against Candida krusei ATCC 30068 after 48 hrs by macro tube dilution method; format: functional; conditions: ATCC 30068, 48 h
Saccharomyces cerevisiae = assay: Antifungal activity against Saccharomyces cerevisiae after 48 hrs by macro tube dilution method; format: functional
Nakaseomyces glabratus = assay: Antifungal activity against Candida glabrata ATCC 3916 after 48 hrs by macro tube dilution method; format: functional; conditions: ATCC 3916, 48 h
Candida albicans [2] = assay: Antifungal activity against Candida albicans ATCC 90028 assessed as inhibition of fungal ergosterol synthesis at 0.5 times MIC after 16 hrs by UV spectrophotometry; format: functional, organism-based
Candida albicans [3] = assay: Inhibition of chitin synthase in Candida albicans ATCC 90028 at 1.5 times MIC by liquid scintillation analyzer relative to nikkomycin
Rattus norvegicus = organism: Rattus norvegicus; assay: Inhibition of lactate dehydrogenase in Wistar rat kidney at 1.5 times MIC relative to control
Candida albicans [4] = assay: Antifungal activity against Candida albicans ATCC 90028 assessed as changes in fungal protein expression at 2 times MIC after 1 hr by electrophoresis-based microchip technology; format: functional, organism-based
Candida albicans [5] = assay: Antifungal activity against Candida albicans ATCC 90028 assessed as changes in fungal protein expression at 0.5 time MIC after 1 hr by electrophoresis-based microchip technology; format: functional, organism-based

Row | Compound | MIC (Candida parapsilosis) [µg/mL] | MIC (Aspergillus sp.) [µg/mL] | MIC (Candida albicans [1]) [µg/mL] | MIC (Pichia kudriavzevii) [µg/mL] | MIC (Saccharomyces cerevisiae) [µg/mL] | MIC (Nakaseomyces glabratus) [µg/mL] | Activity (Candida albicans [2]) | inhibition (Candida albicans [3]) | inhibition (Rattus norvegicus) | Activity (Candida albicans [4]) | Activity (Candida albicans [5]) | Activity (Candida albicans [3])
1 | Cc1ccc(/C=C2\CCC(CN3CCOCC3)C2=O)cc1 (stereo not given) | 6.25 (≈ 21.9 µM) | 25 (≈ 87.6 µM) | 6.25 (≈ 21.9 µM) | 12.5 (≈ 43.8 µM) | 1.56 (≈ 5.47 µM) | 3.12 (≈ 11 µM) | – | – | – | – | – | –
2 | O=C1/C(=C/c2ccccc2)CCC1CN1CCOCC1 (stereo not given) | 3.12 (≈ 11.5 µM) | 50 (≈ 184 µM) | 3.12 (≈ 11.5 µM) | 3.12 (≈ 11.5 µM) | 0.8 (≈ 2.95 µM) | 6.25 (≈ 23 µM) | – | – | – | – | – | –
3 | O=C1/C(=C/c2ccccc2)CCCCC1CN1CCOCC1 (stereo not given) | 100 (≈ 334 µM) | 200 (≈ 668 µM) | 25 (≈ 83.5 µM) | 100 (≈ 334 µM) | 50 (≈ 167 µM) | > 200 | inactive | 24% | inactive | – | – | –
4 | O[C@@H]1/C(=C/c2ccccc2)CC[C@H]1CN1CCCCC1 (relative stereo) | > 200 | > 200 | 100 (≈ 368 µM) | 50 (≈ 184 µM) | 50 (≈ 184 µM) | > 200 | – | – | – | – | – | –
5 | COc1ccc(/C=C2\CCC(CN3CCOCC3)C2=O)cc1 (stereo not given) | 6.25 (≈ 20.7 µM) | 200 (≈ 664 µM) | 3.12 (≈ 10.4 µM) | 12.5 (≈ 41.5 µM) | 1.56 (≈ 5.18 µM) | 6.25 (≈ 20.7 µM) | – | – | – | inactive | inactive | –
6 | COc1ccc(/C=C2\CCCC(CN3CCOCC3)C2=O)cc1OC (stereo not given) | 50 (≈ 145 µM) | > 200 | 25 (≈ 72.4 µM) | 50 (≈ 145 µM) | 25 (≈ 72.4 µM) | 100 (≈ 289 µM) | – | – | – | – | – | –
7 | O[C@H]1/C(=C/c2ccccc2)CCCCC[C@H]1CN1CCCCC1 (relative stereo) | 50 (≈ 159 µM) | 50 (≈ 159 µM) | 100 (≈ 319 µM) | 6.25 (≈ 19.9 µM) | 6.25 (≈ 19.9 µM) | 50 (≈ 159 µM) | – | – | – | – | – | inactive
8 | COc1cc(/C=C2\CCC(CN3CCCCC3)C2=O)cc(OC)c1OC (stereo not given) | 50 (≈ 139 µM) | 100 (≈ 278 µM) | 12.5 (≈ 34.8 µM) | 12.5 (≈ 34.8 µM) | 25 (≈ 69.5 µM) | 100 (≈ 278 µM) | – | – | – | – | – | –
9 | O=C1/C(=C/c2ccccc2)CCC1CN1CCNCC1 (stereo not given) | 6.25 (≈ 23.1 µM) | 100 (≈ 370 µM) | 6.25 (≈ 23.1 µM) | 12.5 (≈ 46.2 µM) | 1.56 (≈ 5.77 µM) | 12.5 (≈ 46.2 µM) | – | inactive | – | inactive | inactive | –
10 | O=C1/C(=C/c2ccccc2)CCC1CN1CCCC1 (stereo not given) | 6.25 (≈ 24.5 µM) | 50 (≈ 196 µM) | 6.25 (≈ 24.5 µM) | 6.25 (≈ 24.5 µM) | 3.12 (≈ 12.2 µM) | 12.5 (≈ 49 µM) | – | – | – | inactive | inactive | –
11 | O=C1/C(=C/c2ccccc2)CCCC1CN1CCOCC1 (stereo not given) | 12.5 (≈ 43.8 µM) | > 200 | 25 (≈ 87.6 µM) | 25 (≈ 87.6 µM) | 3.12 (≈ 11 µM) | > 200 | – | – | – | – | – | –
12 | COc1cccc(/C=C2\CCC(CN3CCCCC3)C2=O)c1 (stereo not given) | 6.25 (≈ 20.9 µM) | 100 (≈ 334 µM) | 12.5 (≈ 41.7 µM) | 12.5 (≈ 41.7 µM) | 6.25 (≈ 20.9 µM) | 12.5 (≈ 41.7 µM) | – | – | – | – | – | –
13 | O[C@H]1/C(=C/c2ccccc2)CCC[C@H]1CN1CCOCC1 (relative stereo) | > 200 | > 200 | > 200 | > 200 | > 200 | > 200 | – | – | – | – | – | –
14 | COc1ccc(/C=C2\CCCC(CN3CCOCC3)C2=O)cc1 (stereo not given) | 12.5 (≈ 39.6 µM) | > 200 | 25 (≈ 79.3 µM) | 25 (≈ 79.3 µM) | 12.5 (≈ 39.6 µM) | > 200 | – | – | – | – | – | –
15 | O=C1/C(=C/c2ccccc2)CCCCCC1CN1CCOCC1 (stereo not given) | > 200 | > 200 | > 200 | > 200 | 200 (≈ 638 µM) | > 200 | – | Active | – | – | – | –
16 | O=C1/C(=C/c2ccccc2)CCCCCC1CN1CCCCC1 (stereo not given) | 200 (≈ 642 µM) | 100 (≈ 321 µM) | 100 (≈ 321 µM) | 200 (≈ 642 µM) | 100 (≈ 321 µM) | > 200 | – | 50% | 30% | – | – | –
17 | O[C@H]1/C(=C/c2ccccc2)CCCC[C@H]1CN1CCOCC1 (relative stereo) | > 200 | > 200 | > 200 | > 200 | > 200 | > 200 | – | – | – | – | – | –
18 | O[C@H]1/C(=C/c2ccccc2)CCC[C@@H]1CN1CCOCC1 (relative stereo) | > 200 | > 200 | 200 (≈ 696 µM) | 200 (≈ 696 µM) | 200 (≈ 696 µM) | > 200 | – | – | – | – | – | –
19 | O[C@H]1/C(=C/c2ccccc2)CCCC[C@@H]1CN1CCCCC1 (relative stereo) | 100 (≈ 334 µM) | > 200 | 50 (≈ 167 µM) | 100 (≈ 334 µM) | 25 (≈ 83.5 µM) | 100 (≈ 334 µM) | – | – | – | – | – | –
20 | Cc1ccc(/C=C2\CCCC(CN3CCOCC3)C2=O)cc1 (stereo not given) | 25 (≈ 83.5 µM) | > 200 | 100 (≈ 334 µM) | 200 (≈ 668 µM) | 3.12 (≈ 10.4 µM) | > 200 | – | – | – | – | – | –
21 | O[C@H]1/C(=C/c2ccccc2)CCCC[C@H]1CN1CCCCC1 (relative stereo) | > 200 | 200 (≈ 668 µM) | > 200 | 200 (≈ 668 µM) | 50 (≈ 167 µM) | 200 (≈ 668 µM) | – | – | – | – | – | –
22 | O=C1/C(=C/c2ccccc2)CCCC1CN1CCCC1 (stereo not given) | 12.5 (≈ 46.4 µM) | 100 (≈ 371 µM) | 25 (≈ 92.8 µM) | 25 (≈ 92.8 µM) | 12.5 (≈ 46.4 µM) | 25 (≈ 92.8 µM) | – | – | – | – | – | –
23 | O[C@H]1/C(=C/c2ccccc2)CCCCC[C@H]1CN1CCOCC1 (relative stereo) | 200 (≈ 634 µM) | > 200 | 200 (≈ 634 µM) | 200 (≈ 634 µM) | 100 (≈ 317 µM) | 200 (≈ 634 µM) | – | – | – | – | – | Active
24 | CC1CCN(C[C@H]2CCC/C(=C\c3ccccc3)[C@@H]2O)CC1 (relative stereo) | > 200 | > 200 | > 200 | > 200 | 100 (≈ 334 µM) | > 200 | – | – | – | – | – | –
25 | O=C1/C(=C/c2ccc3c(c2)OCO3)CCC1CN1CCOCC1 (stereo not given) | 6.25 (≈ 19.8 µM) | > 200 | 1.56 (≈ 4.95 µM) | 6.25 (≈ 19.8 µM) | 3.12 (≈ 9.91 µM) | 3.12 (≈ 9.91 µM) | inactive | – | – | – | – | –
26 | COc1ccccc1/C=C1\CCC(CN2CCCCC2)C1=O (stereo not given) | 12.5 (≈ 41.7 µM) | 100 (≈ 334 µM) | 6.25 (≈ 20.9 µM) | 12.5 (≈ 41.7 µM) | 6.25 (≈ 20.9 µM) | 12.5 (≈ 41.7 µM) | – | – | – | inactive | inactive | –
27 | CC1CCN(CC2CCC/C(=C\c3ccccc3)C2=O)CC1 (stereo not given) | 25 (≈ 84 µM) | 100 (≈ 336 µM) | 12.5 (≈ 42 µM) | 100 (≈ 336 µM) | 12.5 (≈ 42 µM) | 100 (≈ 336 µM) | – | – | – | – | – | –
